# Test results: patent US20140106387A1, “METHOD FOR CONTROLLING NAD(P)/NAD(P)H RATIO BY OXIDOREDUCTASE” (MD BIOALPHA CO., LTD., priority 2006, published 2014)
# Columns and labels:
# [1] = blood metabolic parameters in C57BL/6 DIO mice; assay type: in vivo, mouse
# Experimental: O2 consumption of animals was recorded by a known method. For indirect calorimetry, mice were individually housed in calorimetry chambers (Oxymax OPTO-M3 system; Columbus Instruments, Columbus, Ohio). Animals were allowed to acclimate to a new environment for 48 hours prior to the experiment, and amounts of O2 consumption and CO2 production were measured for […] every 30 minutes. Mice were given free access to food and drinking water during the first 24 h period, and animals were given access to drinking water only during the second 24 h period. Blood samples were taken from a heparinized tube, immediately placed on ice, centrifuged and stored at −20[…] for future use. Enzymatic colorimetry was employed for quantification of triglyceride (TG), total cholesterol, free fatty acids, and glucose (Beckman Instruments, CA). Plasma insulin (Linco Research, MO), TNFα (R&D System), adiponectin (Linco Research, MO), resistin (KOMED) and leptin (Linco Research, MO) were quantified by ELISA.
# HepG2 cells = assay: intracellular ATP, ADP and AMP levels by LC-MS in HepG2; assay type: cell-based, human; settings: HepG2, 10 μM, 2 hours
# Experimental: Samples were analyzed using an Agilent 1100 series LC/MSD system equipped with G1322A degasser, G1312A binary pump, G1315A photo-diode-array detector, 59987A electrospray interface and 5989B mass spectrometer. ES-MS analysis was performed using an Agilent 5989 electrospray (ES) mass spectrometer (MS) with an Agilent Atmospheric Pressure Ionization (API) interface fitted with a hexapole ion guide. Chromatogram was automatically integrated with the aid of Chemstation software, and concentrations were determined using a standard calibration curve.
# Acid extraction was used for analysis of an AOPN concentration in the cells and liver tissues. 400 μl of 6% HClO4 was added to the cells cultured in a 100 mm dish, whereas a two-fold volume of 6% HClO4 was added to the liver tissues which were then immediately homogenized. Each mixture was centrifuged at 14,000 g and 4° C. for 10 min, and the resulting supernatants were neutralized by addition of 1 M borate buffer (pH 11) containing 4 mM EDTA in an amount of 75%. Samples were aliquoted and stored at a temperature of −80° C.
# A mobile phase was 100 mM ammonium acetate:MeOH (98:2, v/v), and preparations were filtered through a 0.22-μm Millipore filter. A flow rate was set to 0.8 mL/min and detection was made at 254 nm. Separation was carried out using a ZORBAX Bonus-RP C18 column (3.5 μm, 4.6×150 mm I.D., Waters, USA). […]
# AMPKα, ACC = assay: AMPKα and ACC phosphorylation in tissues of DIO mice (Western blot); assay type: in vivo, mouse
# Experimental: HepG2 (human hepatoma cell line), HEK293 (Human embryonic kidney cell line), and C2C12/L6 myoblasts were purchased from American Type Culture Collection (ATCC, Manassas, Va., USA). LKB−/− MEFs were purchased from R.A. DePinho. Rat ventricular myocytes were enzymatically isolated from the heart of adult […] by a known method. Phosphorylation of AMPK (Thr172) and ACC (Ser79) was measured by Western blot analysis using Cell Signaling Technologies and pan- and phospho-specific antibodies (Upstate Biotechnology, Inc., Lake Placid, N.Y.).
# Using various proteins extracted from liver, gonadal fat (WAT), EDL and soleus muscle of DIO mice treated with a vehicle or βL for 2 days, T172 phosphorylation of AMPKα and S79 phosphorylation of ACC in each tissue were measured by Western blot analysis.
# FIG. 26 is a photograph showing effects of an NQO1 activator on AMPK & ACC phosphorylation in C57BL/6 mice. In order to investigate anti-obesity effects of an NQO1 activator, the NQO1 activator was administered daily to DIO mice at a dose of 50 mg/kg via an oral route, and effects of the NQO1 activator on phosphorylation of AMPK and ACC, which play an important role in energy metabolism and lipogenesis in the liver and gonadal adipose tissues, were examined. […] Phosphorylated AMPK is believed to activate metabolism associated with energy. Whereas, it is believed that ACC, which is affected by activation of AMPK, is phosphorylated and lipogenic activity thereof is then inhibited, which will then exert some effects on lipid metabolism including inhibition of obesity.
# HEK293 cells = assay: mitochondrial membrane potential (TMRE fluorescence) in HEK293 cells; assay type: cell-based, human
# Experimental: For determination of the inner mitochondrial membrane potential (ΔΨm), 20 nM of TMRE (tetramethylrhodamine ethyl ester) as a fluorescent indicator was continuously applied to be loaded on cells. In order to monitor mitochondrial Ca^2+, cells on glass coverslips were loaded with 10 μM Rhod-2 AM via cold loading/warm incubation. In order to monitor cytosolic Ca^2+, cells were co-loaded with 10 μM Fluo-4 AM at 37′C for 30 min. The cells were washed twice with a KB solution, and mounted in a perfusion chamber. Fluorescent imaging was taken using a confocal laser scanning microscope (LSM-510 META, Carl Zeiss) at a magnification of ×200 and ×400, in conjunction with appropriate laser lines and a filter set. Image analysis was carried out using LSM-510 META software (Zeiss). Images for TMRE (red fluorescence), Rhod-2 (red fluorescence) and Fluo-4 (green fluorescence) were obtained using an inverted Zeiss 510META laser-scanning confocal microscope equipped with ×63 numerical aperture, 1.4 oil-immersion planapochromat lens. Green fluorescence and red fluorescence were illuminated with light of 488 nm and 543 nm. Incident light was passed through a 545 nm dichroic mirror and observed via a 500 to 530 nm band-pass (green) filter and a 560 nm long-pass (red) barrier filter.
# However, such effects were not observed in HEK293 cells. […]
# AMPK = AMPK kinase assay in mouse tissues; assay type: in vivo
# [2] = DIO mice, oral 50 mg/kg, data not shown
structure (smiles),measurement,setting,value
"CC1(C)CCC2=C(O1)c1ccccc1C(=O)C2=O [βL, 2,2-Dimethyl-3,4-dihydro-2H-benzo[h]chromene-5,6-dione]",blood level of resistin,[1]; 50 mg/kg daily oral,significantly improved
same,insulin resistance and leptin resistance,[1]; 50 mg/kg daily oral,improved
same,blood fat and glucose levels,"[1]; Days 3, 7, 14, 28 and 56, 50 mg/kg daily oral",significantly improved
same,time at which ATP amount was minimum and AMP amount maximum,HepG2 cells,30 min
same,phosphorylation of AMPK and ACC in the gonadal and liver tissues,"AMPKα, ACC; C57BL/6 DIO mice, 50 mg/kg daily, oral",has an effect on phosphorylation of AMPK and ACC
same,S79 phosphorylation of ACC and T172 phosphorylation of AMPKα,"AMPKα, ACC; gonadal fat of DIO mice treated for 2 days",no such effects
same,S79 phosphorylation of ACC and T172 phosphorylation of AMPKα,"AMPKα, ACC; liver and muscle (EDL, Soleus) of DIO mice treated for 2 days",increased
same,effect on TMRE fluorescence / ΔΨm,HEK293 cells,not observed
same,AMPK activity in the liver and gonadal adipose tissues,"AMPK; C57BL/6 mice, 5 mg/kg tail vein, 2 hours and 4 hours",increased AMPK activity
same,"AMPK activity in liver, EDL and soleus muscle vs vehicle-treated control","AMPK; DIO mice, oral 50 mg/kg",higher
same,duration of oral administration effect on AMPK activity,AMPK; [2],about 6 hours
same,time of maximum oral administration effect on AMPK activity,AMPK; [2],2 h
